Earlier results as cited in publication PMC4128785 (Molecular Pharmaceutics, 2014).

Details: Sc(III) complex of DOTA

SMILES: O=C(O)CN1CCN(CC(=O)O)CCN(CC(=O)O)CCN(CC(=O)O)CC1 [DOTA, 1,4,7,10-tetraazacyclododecane-N,N′,N″,N‴-tetraacetic acid]
- thermodynamic stability (−log K): 27.0
